# From patent publication US20140221225A1, “METHOD FOR OBTAINING A MULTICELLULAR SPHEROID” (Universiteit Leiden, priority 2011, published 2014)
# Entries after “also recorded” stand apart in the source; their conditions may differ.
# System: Chondrosarcoma
# Assay: Inhibitor treatment of spheroids from fresh human chondrosarcoma biopsy in collagen gel
# Type: cell-based
# Details: lowest collagen concentration 1.0 mg/ml; bright-field images after 6 days; treatment from 1 day post-injection
# Text: (§1) FIG. 9: Spheroids obtained from two fresh human biopsies. […] The lowest concentration, row G, triggers the largest migration in Chondrosarcoma as well (G5) while the type of migration remains the same between the row F and row G (see F4, G5). […] Scale=100 μm.
# (§2) Human biopsy material was obtained from surplus material from patients that were surgically treated for chondrosarcoma or osteosarcoma. Tumor cell suspensions were derived from biopsies by overnight collagenase treatment at room temperature.
# (§3) Cell suspensions derived from trypsin-detached adherent cultures or from collagenase-treated biopsies were filtered to remove clumps, centrifuged at 1000 rpm for 5 minutes, and washed twice with PBS. ˜7×10^6 cells were re-suspended in 30 μl PBS containing 2% polyvinylpyrrolidone (PVP; Sigma-Aldrich). The PVP/cell suspension was loaded into a beveled pulled glass needle (Eppendorf CustomTip Type III, oD [μm] 60, Front surface 40, Flexibility: rigid).
# (§4) Next, cell suspensions were derived from freshly isolated human biopsies of osteosarcoma and chondrosarcoma and injected in gels containing three different collagen concentrations. MS readily formed from these human biopsies and survival and migration could be studied for up to 1 week with the two tumor types showing distinct migratory behavior (FIG. 9). […] MS were treated with the range of compounds described above starting 1 day post-injection. […] Thus, the automated MS injection methodology has the potential to be used for large scale screening for the drug sensitivity spectrum of tumor cells freshly isolated from individual patients.
row,SMILES,Migration of Chondrosarcoma spheroids
1,O=S(=O)(c1cccc2c(I)cccc12)N1CCCNCC1 [ML-7],block migration completely; also recorded: effectively inhibited migration
2,CC(C)(C)n1nc(-c2ccc(Cl)cc2)c2c(N)ncnc21 [PP2],reduces migration; also recorded: effectively inhibited migration
3,COc1cc2ncnc(Nc3cccc(Cl)c3)c2cc1OC [AG1478],block migration completely; also recorded: effectively inhibited migration
4,CC(C)(O)/C=C/C(=O)[C@](C)(O)[C@H]1[C@H](O)C[C@@]2(C)[C@@H]3CC=C4[C@@H](C=C(O)C(=O)C4(C)C)[C@]3(C)C(=O)C[C@]12C [JSI-124],block migration completely; also recorded: effectively inhibited migration
5,C[C@@H](N)[C@H]1CC[C@H](C(=O)Nc2ccncc2)CC1 [Y-27632],stimulates migration

# System: 4T1 cells
# Assay: Proof-of-principle drug screen on automatically injected 4T1 multicellular spheroids in collagen gel, 96 well plate
# Type: cell-based, mouse
# Details: 1:1000 dilution (10 μM); automated analysis of fluorescent actin staining at day 4; Figure 7B; ctrl 0.67; unit assumed
# Method: as §3
# A glass-bottom 96 well plate (Greiner) containing 60 μl solidified collagen gel per well was placed in a motorized stage (MTmot 200×100 MR, Märzhäuser) connected to a controller (Tango, Märzhäuser). A motorized micro-manipulator (Injectman II, Eppendorf) was positioned above the stage and connected to a pump (Femtojet Express, Eppendorf) featuring an external compressor (lubricated compressor, model 3-4, JUN-AIR). A firewire camera (DFK41BF02.H, The Imaging Source) equipped with an 8× macro lens (MR8/O, The Imaging Source) was placed beneath the stage for calibration and imaging. All components were connected to the controlling computer (Ubuntu AMD64). A multi-threaded control program was written in Python using PySerial and wxPython. Coriander software (http://damien.douxchamps.net/ieee1394/coriander) was used for imaging.
# After the program was calibrated for the 96 well plate the camera height was adjusted to focus on the bottom of the 96 well plate. The plate was then removed for needle calibration: the injection needle was fixed in the Injectman and moved, using the Injectman controller, into the center of the image. The injection height was set to 200 µm above the bottom of the (virtual) plate. After the needle was moved up, the plate was placed back in position and the upper left well was used for multiple test injections to adjust pump pressure and injection time for optimization of the droplet size (300 µm diameter) using video inspection. Subsequently, using a pre-defined macro defining x-y coordinates and number of injections per well, all wells were injected using the same pressure and injection time.
# Differential interference contrast (DIC) images were captured using a charged coupled device (CCD) camera with NIS Image Pro software at 10× dry objective. Quantification of spheroid invasion area was analyzed from DIC images using ImageJ. […] One-way ANOVA was performed to test the significance of the data (p<0.05). The data are presented and plotted as average and standard error of the mean; tables are available in the supplement.
# For automated imaging, wells containing gel-embedded spheroids were treated with a fixation and staining cocktail containing 3.7% formaldehyde, 0.2% Triton X-100 (Sigma) and 0.1 μM rhodamine phalloidin (Sigma) for 3 hrs. Wells were washed extensively with PBS and plates were imaged on a Becton Dickinson Pathway 855 using a 4× lens. A montage of 12 frames was made for each Z plane, with a total of 24 Z planes at an interval of 50 μm. Image stacks were converted into 2D maximum fluorescence intensity projections using ImagePro 7.0. MS were then digitally segmented using ImageJ to identify the outline of individual spheroids and multiple parameters were measured, including spheroid Feret's diameter, roundness, and number of spheroids scored in each well.
# LY-294002 (phosphatidylinositol 3-kinase), JSI-124-cucurbitacin (STAT3/Jak2), and NSC23766 (Rac1) were purchased from Merck/CalBiochem. PP2 (Src) and ML-7 (MLC kinase) were purchased from ENZO. Y-27632 (Rock) and SB-431542 (TGFb) were purchased from BioMol Tocris. AG1478 (EGFR) was purchased from BioMol and AG-82 (general protein tyrosine kinases) was purchased from Calbiochem. Cell migration was analyzed in the absence and presence of inhibitors for 4 days.
# A proof of principle drug screen was performed to test the applicability of this procedure to automated high-throughput drug screening assays (HTS). […]
row,SMILES,"Feret's Diameter (longest distance between any two points along the selection boundary, maximum caliper), averages [mm]"
1,NC(=O)c1ccc(-c2nc(-c3ccc4c(c3)OCO4)c(-c3ccccn3)[nH]2)cc1 [SB-431542],0.46
2,CCN(CC)CCCC(C)Nc1nc(C)cc(Nc2ccc3nc(C)cc(N)c3c2)n1 (centres unmarked) [NSC23766],0.37
3,CC(C)(C)n1nc(-c2ccc(Cl)cc2)c2c(N)ncnc21 [PP2],0.55
4,O=c1cc(N2CCOCC2)oc2c(-c3ccccc3)cccc12 [LY-294002],0.38
5,COc1cc2ncnc(Nc3cccc(Cl)c3)c2cc1OC [AG1478],0.56
6,N#CC(C#N)=Cc1cc(O)c(O)c(O)c1 [AG-82],0.46
7,CC(C)(O)/C=C/C(=O)[C@](C)(O)[C@H]1[C@H](O)C[C@@]2(C)[C@@H]3CC=C4[C@@H](C=C(O)C(=O)C4(C)C)[C@]3(C)C(=O)C[C@]12C [JSI-124],0.23
8,C[C@@H](N)[C@H]1CC[C@H](C(=O)Nc2ccncc2)CC1 [Y-27632],0.41

# Same assay, conditions: 1:1000 dilution (10 μM); automated analysis of fluorescent actin staining at day 4; Figure 7C; ctrl 0.15
row,SMILES,"Circularity (4π*area/perimeter^2, 1 = perfect circle), averages"
1,NC(=O)c1ccc(-c2nc(-c3ccc4c(c3)OCO4)c(-c3ccccn3)[nH]2)cc1 [SB-431542],0.22
2,CCN(CC)CCCC(C)Nc1nc(C)cc(Nc2ccc3nc(C)cc(N)c3c2)n1 (centres unmarked) [NSC23766],0.29
3,CC(C)(C)n1nc(-c2ccc(Cl)cc2)c2c(N)ncnc21 [PP2],0.19
4,O=c1cc(N2CCOCC2)oc2c(-c3ccccc3)cccc12 [LY-294002],0.26
5,COc1cc2ncnc(Nc3cccc(Cl)c3)c2cc1OC [AG1478],0.19
6,N#CC(C#N)=Cc1cc(O)c(O)c(O)c1 [AG-82],0.24
7,CC(C)(O)/C=C/C(=O)[C@](C)(O)[C@H]1[C@H](O)C[C@@]2(C)[C@@H]3CC=C4[C@@H](C=C(O)C(=O)C4(C)C)[C@]3(C)C(=O)C[C@]12C [JSI-124],0.78
8,C[C@@H](N)[C@H]1CC[C@H](C(=O)Nc2ccncc2)CC1 [Y-27632],0.35

# Same assay, conditions: 1:1000 dilution (10 μM); manual from DIC images at day 0 and day 4; Figure 7A; ctrl 25.88
row,SMILES,"Invasion area (area day 4/area day 0), averages"
1,O=S(=O)(c1cccc2c(I)cccc12)N1CCCNCC1 [ML-7],1.09
2,NC(=O)c1ccc(-c2nc(-c3ccc4c(c3)OCO4)c(-c3ccccn3)[nH]2)cc1 [SB-431542],16
3,CCN(CC)CCCC(C)Nc1nc(C)cc(Nc2ccc3nc(C)cc(N)c3c2)n1 (centres unmarked) [NSC23766],17.51
4,CC(C)(C)n1nc(-c2ccc(Cl)cc2)c2c(N)ncnc21 [PP2],22.48
5,O=c1cc(N2CCOCC2)oc2c(-c3ccccc3)cccc12 [LY-294002],14.91
6,COc1cc2ncnc(Nc3cccc(Cl)c3)c2cc1OC [AG1478],25.75
7,N#CC(C#N)=Cc1cc(O)c(O)c(O)c1 [AG-82],20.96
8,CC(C)(O)/C=C/C(=O)[C@](C)(O)[C@H]1[C@H](O)C[C@@]2(C)[C@@H]3CC=C4[C@@H](C=C(O)C(=O)C4(C)C)[C@]3(C)C(=O)C[C@]12C [JSI-124],1.01
9,C[C@@H](N)[C@H]1CC[C@H](C(=O)Nc2ccncc2)CC1 [Y-27632],16.86

# Same assay, conditions: rhodamine phalloidin actin fluorescence, 4 days treatment
row,SMILES,Cell survival in 4T1 spheroids
1,O=S(=O)(c1cccc2c(I)cccc12)N1CCCNCC1 [ML-7],did not survive the treatment; also recorded: affected cell survival

# Same assay, conditions: visual inspection / actin images after 4 days; 4, 10, 20 μM
row,SMILES,Cell migration from 4T1 spheroids
1,O=S(=O)(c1cccc2c(I)cccc12)N1CCCNCC1 [ML-7],Effects on cell migration could be clearly observed
2,CC(C)(O)/C=C/C(=O)[C@](C)(O)[C@H]1[C@H](O)C[C@@]2(C)[C@@H]3CC=C4[C@@H](C=C(O)C(=O)C4(C)C)[C@]3(C)C(=O)C[C@]12C [JSI-124],"Effects on cell migration could be clearly observed; also recorded: blocked migration, but left the MS intact"

# System: Osteosarcoma
# Assay: Inhibitor treatment of spheroids from fresh human osteosarcoma biopsy in collagen gel
# Type: cell-based
# Details: lowest collagen concentration 1.0 mg/ml; bright-field images after 6 days; treatment from 1 day post-injection
# Text: as §1, §2, §3, §4
row,SMILES,Migration of Osteosarcoma spheroids
1,O=S(=O)(c1cccc2c(I)cccc12)N1CCCNCC1 [ML-7],block migration; also recorded: effectively inhibited migration
2,CC(C)(C)n1nc(-c2ccc(Cl)cc2)c2c(N)ncnc21 [PP2],block migration; also recorded: effectively inhibited migration
3,COc1cc2ncnc(Nc3cccc(Cl)c3)c2cc1OC [AG1478],block migration; also recorded: effectively inhibited migration
4,CC(C)(O)/C=C/C(=O)[C@](C)(O)[C@H]1[C@H](O)C[C@@]2(C)[C@@H]3CC=C4[C@@H](C=C(O)C(=O)C4(C)C)[C@]3(C)C(=O)C[C@]12C [JSI-124],block migration; also recorded: effectively inhibited migration
5,C[C@@H](N)[C@H]1CC[C@H](C(=O)Nc2ccncc2)CC1 [Y-27632],stimulates migration
